Common to all, as to assay type: cell-based
What all share (settings): Oocyte

Assay [1] deals with T1, Neuronal acetylcholine receptor; alpha9/alpha10 (Homo sapiens) (UniProt Q9UGM1+Q9GZZ6). Description: Antagonist activity at human alpha9alpha10 nAChR expressed in Xenopus laevis oocytes assessed as inhibition of ACh-induced current amplitude at -80 mV holding potential at 10 uM by two-electrode voltage clamp method.
Assay [2] addresses T1, Neuronal acetylcholine receptor; alpha9/alpha10 (Homo sapiens). Description: Antagonist activity at human alpha9alpha10 nAChR expressed in Xenopus laevis oocytes assessed as inhibition of ACh-induced current amplitude at -80 mV holding potential at 1 uM by two-electrode voltage clamp method. On the technique in general: Two-electrode voltage clamp holds a large cell at a set potential and records current.

For assay [3] the target is unchanged. Description: Antagonist activity at human alpha9alpha10 nAChR expressed in Xenopus laevis oocytes assessed as inhibition of ACh-induced current amplitude at -80 mV holding potential at 100 nM by two-electrode voltage clamp method.

The source made the active and inactive calls. No cut-off for these calls is given here. Positions of bridges follow the written chain, without caps; N, C: chain ends. Non-standard residues stand in square brackets, D forms with d. Residues, ends and D or L forms follow the SMILES beside them. ξ: configuration not given here. ξDap = NCC(N)C(=O)O

As a reminder, the inhibition is the drop in the measured response relative to a control, in per cent.

With `CC[C@H](C)[C@@H]1NC(=O)[C@H](CC(=O)O)NC(=O)[C@@H]2CCCN2C(=O)[C@H](CC(N)=O)NC(=O)[C@H](CC(N)=O)NC(=O)[C@H](C(C)C)NC(=O)[C@H](CO)NC(=O)[C@@H]2CSSC[C@H](NC(=O)CN)C(=O)N[C@@H](CSSC[C@@H](C(N)=O)NC1=O)C(=O)N[C@@H](C)C(=O)N[C@@H](Cc1cnc[nH]1)C(=O)N1CCC[C@H]1C(=O)N[C@@H](C)C(=O)N2` (H-GCCAHPACSVNNPDIC-NH2; disulfide 2-8, 3-16), the inhibition entry in assay [1] (filed as antagonist) is “Active”.
As for `CC[C@H](C)[C@@H]1NC(=O)[C@H](CC(=O)O)NC(=O)[C@@H]2CCCN2C(=O)[C@H](CC(N)=O)NC(=O)[C@H](CC(N)=O)NC(=O)[C@H](C(C)C)NC(=O)[C@H](CO)NC(=O)[C@@H]2CSSC[C@H](NC(=O)CN)C(=O)N[C@@H](CSSC[C@@H](C(N)=O)NC1=O)C(=O)N[C@@H](CO)C(=O)N[C@@H](C)C(=O)N1CCC[C@H]1C(=O)N[C@@H](C)C(=O)N2` (H-GCCSAPACSVNNPDIC-NH2; disulfide 2-8, 3-16), the inhibition in assay [1] amounted to 20%.
For the compound `CC[C@H](C)[C@@H]1NC(=O)[C@H](CC(=O)O)NC(=O)[C@@H]2CCCN2C(=O)[C@H](CC(N)=O)NC(=O)[C@H](CC(N)=O)NC(=O)[C@H](C(C)C)NC(=O)[C@H](C)NC(=O)[C@@H]2CSSC[C@H](NC(=O)CN)C(=O)N[C@@H](CSSC[C@@H](C(N)=O)NC1=O)C(=O)N[C@@H](CO)C(=O)N[C@@H](Cc1cnc[nH]1)C(=O)N1CCC[C@H]1C(=O)N[C@@H](C)C(=O)N2` (H-GCCSHPACAVNNPDIC-NH2; disulfide 2-8, 3-16), the inhibition entry in assay [1] (filed as antagonist) is “Active”.
In the case of `CC[C@H](C)[C@@H]1NC(=O)[C@H](CC(=O)O)NC(=O)[C@@H]2CCCN2C(=O)[C@H](Cc2cnc[nH]2)NC(=O)[C@H](CC(N)=O)NC(=O)[C@H](C(C)C)NC(=O)[C@H](CO)NC(=O)[C@@H]2CSSC[C@H](NC(=O)CN)C(=O)N[C@@H](CSSC[C@@H](C(N)=O)NC1=O)C(=O)N[C@@H](CO)C(=O)N[C@@H](Cc1cnc[nH]1)C(=O)N1CCC[C@H]1C(=O)N[C@@H](C)C(=O)N2` (H-GCCSHPACSVNHPDIC-NH2; disulfide 2-8, 3-16), the inhibition in assay [2] turned out to be 20%; in assay [2] (filed as antagonist) it was 40%.
For `CC[C@H](C)[C@@H]1NC(=O)[C@H](CCC(=O)O)NC(=O)[C@@H]2CCCN2C(=O)[C@H](CC(N)=O)NC(=O)[C@H](CC(N)=O)NC(=O)[C@H](C(C)C)NC(=O)[C@H](CO)NC(=O)[C@@H]2CSSC[C@H](NC(=O)CN)C(=O)N[C@@H](CSSC[C@@H](C(N)=O)NC1=O)C(=O)N[C@@H](CO)C(=O)N[C@@H](Cc1cnc[nH]1)C(=O)N1CCC[C@H]1C(=O)N[C@@H](C)C(=O)N2` (H-GCCSHPACSVNNPEIC-NH2; disulfide 2-8, 3-16) the same measures were 20% and 40%.
`CC[C@H](C)[C@@H]1NC(=O)[C@H](CC(=O)O)NC(=O)[C@@H]2CCCN2C(=O)[C@H](CC(N)=O)NC(=O)[C@H](CC(N)=O)NC(=O)[C@H](Cc2ccc(O)cc2)NC(=O)[C@H](CO)NC(=O)[C@@H]2CSSC[C@H](NC(=O)CN)C(=O)N[C@@H](CSSC[C@@H](C(N)=O)NC1=O)C(=O)N[C@@H](CO)C(=O)N[C@@H](Cc1cnc[nH]1)C(=O)N1CCC[C@H]1C(=O)N[C@@H](C)C(=O)N2` (H-GCCSHPACSYNNPDIC-NH2; disulfide 2-8, 3-16): the inhibition amounted to 20% in assay [2] and 25% in assay [3].
With `CC[C@H](C)[C@@H]1NC(=O)[C@H](CC(=O)O)NC(=O)[C@@H]2CCCN2C(=O)[C@H](CC(N)=O)NC(=O)[C@H](CC(N)=O)NC(=O)[C@H](C(C)C)NC(=O)C(CN)NC(=O)[C@@H]2CSSC[C@H](NC(=O)CN)C(=O)N[C@@H](CSSC[C@@H](C(N)=O)NC1=O)C(=O)NC(CN)C(=O)N[C@@H](Cc1cnc[nH]1)C(=O)N1CCC[C@H]1C(=O)N[C@@H](C)C(=O)N2` (stereo not given in full) (H-GCC[ξDap]HPAC[ξDap]VNNPDIC-NH2; disulfide 2-8, 3-16), the inhibition in assay [3] (filed as antagonist) is greater than 95%.

These data come from ChEMBL document CHEMBL5150017, “Mechanism of Action and Structure-Activity Relationship of α-Conotoxin Mr1.1 at the Human α9α10 Nicotinic Acetylcholine Receptor” (J Med Chem, 2022).
